One data set concerns Chenopodium album. Description: Herbicidal activity against Chenopodium album assessed as killing at 500 g/ha pre-emergence application upland paddy conditions measured after 14 days. It is filed as functional.
The test system of data set [1] is Echinochloa oryzicola. Description: Herbicidal activity against Echinochloa oryzicola assessed as killing at 50 g/ha pre-emergence application under paddy conditions. The format is functional.
Data set [2] has as its system Echinochloa oryzicola. Description: Herbicidal activity against Echinochloa oryzicola assessed as killing pre-emergence application under paddy conditions. It is filed as functional.
The nature of data set [3]: Herbicidal activity against broadleaf weed assessed as killing at 50 g/ha pre-emergence application under paddy conditions. The format is functional.
For the next data set, the system named is Zea mays. Description: Herbicidal activity against Zea mays (maize)assessed as killing at 500 g/ha pre-emergence application upland paddy conditions measured after 14 days. It is filed as functional.
The subject of another data set is Digitaria ciliaris. Description: Herbicidal activity against Digitaria ciliaris assessed as killing at 500 g/ha pre-emergence application upland paddy conditions measured after 14 days. The format is functional.
Data set [4] is described as follows: Octanol-water partition coefficient, log K of the compound. It is filed as physicochemical. The following applies: read-out: log K.
In data set [5] the test system is Schoenoplectiella juncoides. The data set can be described thus: Herbicidal activity against Schoenoplectiella juncoides assessed as killing at 50 g/ha pre-emergence application under paddy conditions. It is filed as functional.
The test system of a further data set is Echinochloa crus-galli. The data set can be described thus: Herbicidal activity against Echinochloa crus-galli (barnyard grass) assessed as killing at 500 g/ha pre-emergence application upland paddy conditions measured after 14 days. It is filed as functional.
The next data set deals with Oryza sativa. The data set can be described thus: Toxicity in Oryza sativa (rice) assessed as injury at 50 g/ha pre-emergence application under paddy conditions by crop safety assay. It is filed as organism-based. The following applies: in vivo, other.
A further data set has as its system Pontederia vaginalis. The data set can be described thus: Herbicidal activity against Monochoria vaginalis assessed as killing at 50 g/ha pre-emergence application under paddy conditions. The format is functional.

Each structure is given as a SMILES string.

Regarding `CCN(CC)C(=O)n1cnc(S(=O)(=O)C(C(=O)OC)C2CC2)n1` (configuration not stated), the Activity in the data set on Chenopodium album stood at 80%; with Echinochloa oryzicola [1], 10%; in data set [3] it was 10%; with Zea mays, 20%; in the data set with Digitaria ciliaris it was 100%; in [5], 10%. The Activity is recorded as 90% in the data set with Echinochloa crus-galli, 10% in the data set with Oryza sativa and 10% in the data set on Pontederia vaginalis. In addition, in the data set on Echinochloa oryzicola [2], the “log(1/ED80)” value stood at 0.24. The logP in data set [4] worked out at 0.47.
For the compound `CCC(C)C(C(=O)OC)S(=O)(=O)c1ncn(C(=O)N(CC)CC)n1` (configuration not stated), the Activity in the data set on Chenopodium album stood at 100%; with Echinochloa oryzicola [1], 100%; in data set [3], 80%; in the data set with Zea mays, 40%; in the data set on Digitaria ciliaris, 100%; in [5], 90%. The Activity is reported as 90% in the data set on Echinochloa crus-galli, 10% in the data set with Oryza sativa and 60% in the data set on Pontederia vaginalis. The “log(1/ED80)” value in the data set with Echinochloa oryzicola [2] is reported as 0.95. In [4], the logP came to 0.66.
`CCN(CC)C(=O)n1cnc(S(=O)(=O)C(Cc2ccccc2)C(=O)OC)n1` (configuration not stated): the Activity in the data set with Chenopodium album came out at 30%; with Echinochloa oryzicola [1], 50%; in data set [3] it was 10%; in the data set with Zea mays it was 10%; in the data set on Digitaria ciliaris, 10%; in data set [5] it was 10%. Further, the Activity with Echinochloa crus-galli, in the data set on Oryza sativa and in the data set with Pontederia vaginalis was 10% in each case. Also, the “log(1/ED80)” value in the data set on Echinochloa oryzicola [2] turned out to be 0.6. Besides, in [4], the logP is 0.69.
Take `CCN(CC)C(=O)n1cnc(S(=O)(=O)C(CC(=O)OC)C(=O)OC)n1` (configuration not stated): the Activity was determined as 30% with Chenopodium album; 10% in the data set on Echinochloa oryzicola [1]; 10% in [3]; 10% in the data set on Zea mays; 60% with Digitaria ciliaris; 10% in data set [5]. For the same compound, the Activity in the data set with Echinochloa crus-galli is reported as 50%; in the data set with Oryza sativa, 10%; with Pontederia vaginalis, 10%. Also, in the data set with Echinochloa oryzicola [2], the “log(1/ED80)” value was -0.04. Further, the logP in [4] was 0.45.
With `C=CC(C)C(C(=O)OC)S(=O)(=O)c1ncn(C(=O)N(CC)CC)n1` (configuration not stated), the Activity in the data set with Chenopodium album was 90%; in the data set on Echinochloa oryzicola [1], 60%; in data set [3], 10%; in the data set on Zea mays it was 70%; with Digitaria ciliaris it was 90%; in data set [5], 10%. Besides, the Activity amounted to 90% in the data set on Echinochloa crus-galli, 10% in the data set with Oryza sativa and 10% in the data set on Pontederia vaginalis. For the same compound, the “log(1/ED80)” value in the data set with Echinochloa oryzicola [2] was determined as 0.65. Further, the logP in data set [4] stood at 0.63.
As to `CCC(C(=O)OC)S(=O)(=O)c1ncn(C(=O)N(CC)CC)n1` (configuration not stated), the Activity in the data set with Chenopodium album worked out at 40%; in the data set with Echinochloa oryzicola [1], 60%; in [3] it was 10%; in the data set with Zea mays, 30%; in the data set with Digitaria ciliaris, 50%; in [5], 10%. Also, the values for the Activity in the data set on Echinochloa crus-galli, in the data set on Oryza sativa and in the data set with Pontederia vaginalis were 60%, 10% and 10%, respectively. Moreover, in the data set on Echinochloa oryzicola [2], the “log(1/ED80)” value stood at 0.74. For the same compound, the logP in [4] amounted to 0.49.
With `CCN(CC)C(=O)n1cnc(S(=O)(=O)C(CCCC#N)C(=O)OC)n1` (configuration not stated), the Activity came out at 90% with Chenopodium album; 10% in the data set with Echinochloa oryzicola [1]; 10% in [3]; 70% in the data set on Zea mays; 90% in the data set on Digitaria ciliaris; 10% in data set [5]. Moreover, the Activity with Echinochloa crus-galli turned out to be 90%; in the data set with Oryza sativa, 10%; in the data set with Pontederia vaginalis, 10%. In addition, the “log(1/ED80)” value with Echinochloa oryzicola [2] was 0.05. Also, the logP in data set [4] turned out to be 0.41.

The values are drawn from ChEMBL document CHEMBL3044861, “Synthesis and Herbicidal Activity of New 2-(1-Carbamoyl-1, 2, 4-triazol-3-ylsulfonyl) alkanoates” (J Pestic Sci, 2002).
